{"source": "patent US11519911B2", "about": "“ALX receptor ligands define a biochemical endotype for inflammation-based diseases” (THE BRIGHAM AND WOMEN'S HOSPITAL, INC., priority 2017, dated 2022)", "molecules": {"B1": {"name": "SAA: acute phase protein, pro-inflammatory ALX peptide ligand; recombinant human SAA (Peprotech) (protein, UniProt P0DJI8 19-122, looked up)", "Serum amyloid A-1 protein": "RSFFSFLGEAFDGARDMWRAYSDMREANYIGSDKYFHARGNYDAAKRGPGGAWAAEVITDARENIQRFFGHGAEDSLADQAANEWGRSGKDPNHFRPAGLPEKY"}}, "key": {"ALX/FPR2 receptors (ALX) [1]": {"target": "T1, ALX/FPR2 receptors (ALX) (Homo sapiens, UniProt P25090)", "T1 sequence (P25090 1-351)": "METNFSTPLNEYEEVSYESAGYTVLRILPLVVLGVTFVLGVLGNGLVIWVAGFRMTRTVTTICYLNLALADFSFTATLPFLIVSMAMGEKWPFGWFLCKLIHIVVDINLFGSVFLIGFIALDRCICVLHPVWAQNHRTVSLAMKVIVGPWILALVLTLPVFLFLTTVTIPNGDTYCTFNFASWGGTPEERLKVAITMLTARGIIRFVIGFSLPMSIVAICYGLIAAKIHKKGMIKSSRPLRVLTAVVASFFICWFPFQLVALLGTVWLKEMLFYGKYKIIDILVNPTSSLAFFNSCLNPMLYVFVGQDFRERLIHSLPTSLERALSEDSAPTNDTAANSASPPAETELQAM", "details": "high affinity cognate receptors; reference (16); cited from earlier work"}, "ALX/FPR2 receptors (ALX) [2]": {"target": "T1, ALX/FPR2 receptors (ALX)", "assay": "ALX-dependent in vitro reporter assay: IL-8 production by A549 cells expressing human ALX receptor (ELISA)", "assay_type": "cell-based", "parameters": "expressed in transfected cells; host or cells: A549 human lung epithelial cells, stably transfected", "method": "FIG. 6 A-D. SAA and 15-epi-LXA4 signaling via ALX receptors regulates production of the neutrophil chemoattractant IL-8 A549 human epithelial cells expressing human ALX receptors (A549^hALX) were exposed to BALF from HD, NSA, or SA subjects (24 h, 37° C., 5% CO2) and IL-8 levels were measured in the cell-free supernatant by ELISA (see Methods). (A) Mean levels of LXA4, 15-epi-LXA4 and SAA in BALF from n=15 subjects used for A549^hALX cell incubations are shown in stacked bar graphs and the relative proportions are noted in pie charts. (B) IL-8 production by A549^hALX cells was measured after incubation with saline control or SAA (2.5 ng/ml or 10 ng/ml) for 24 hours. (C) IL-8 production by A549^hALX cells was measured after 24 hours of exposure to BALF from HD (n=3), NSA (n=6) or SA (n=5) and is expressed as an increase relative to saline controls. Incubations with BALF without an increase in IL-8 production relative to saline control were assigned a value of zero. (D) A549^hALX epithelial cells were exposed to BALF from subjects with endogenous levels that were LXA4^highSAA^low (n=5) or LXA4^lowSAA^high (n=6) followed by exposure to exogenous 15-epi-LXA4 (100 nM). % Inhibition of IL-8 production after 15-epi-LXA4 exposure was calculated. *p<0.05, ****p<0.001 by (B) one-way ANOVA (C) Kruskal-Wallis test and (D) Mann-Whitney test. ALX, airway lipoxin A4 receptor; LXA4, lipoxin A4; 15-epi-LXA4, 15-epimer lipoxin A4; SAA, serum amyloid A; HD, healthy donors; NSA, non-severe asthma; SA, severe asthma; IL-8, interleukin-8; BALF, bronchoalveolar lavage fluid.\nTo determine the functional relationship for these ALX receptor ligands, we next turned to an ALX-dependent in vitro reporter assay that we have previously qualified in chronic obstructive pulmonary disease (18). A549 lung epithelial cells were stably transfected to express the human ALX/FPR2 receptor (hALX). […]\nA549 transfected to stably express the human ALX receptor were used (as in (18)). […] IL-8 levels in the supernatants were measured by ELISA (R&D). […]"}, "[3]": {"assay": "BALF ALX ligand levels after a single dose of intramuscular triamcinolone in asthma subjects", "assay_type": "in vivo, human", "details": "measured 3 to 6 weeks after, SA or NSA subjects", "method": "Subjects 13 years of age and older with asthma and healthy control subjects were recruited between November 2012 and February 2015 by seven geographically dispersed, research centers in the USA. European Respiratory Society/American Thoracic Society guidelines were used to categorize subjects as SA or NSA (48). Control subjects were individuals who reported general health and were non-smokers with no history of lung disease, atopic disease or allergic rhinitis. BAL was performed with three 50 mL aliquots of warm saline, and BALF were recovered by hand suction. Subjects received intramuscular triamcinolone (1 mg/kg up to a maximum dose of 40 mg) and some subjects agreed to undergo a second bronchoscopy 3 to 6 weeks later and BAL samples were collected in the same manner. BAL cells were enumerated and differential leukocyte counts determined. Cell-free BALF supernatant was divided into several aliquots. One aliquot of BALF (1 ml) was directly mixed with iced methanol (2 ml, for 1:2, vol/vol) before storing at −80° C. The other aliquots were directly stored at −80° C. […]\nLXA4 and 15-epi-LXA4 levels in the BALF were measured by ELISA (Neogen, Lexington, Ky.). […] SAA and ANXA1 levels were measured by ELISA in aliquots of BALF stored in the absence of methanol (SAA: Abazyme, Needham, Mass.; ANXA1: Cloud-Clone, Houston, Tex.). […]"}}, "note": "“Also recorded” adds a separate entry of the source.", "data": [{"molecule": "CCCCC[C@H](O)/C=C/C=C\\C=C\\C=C\\[C@@H](O)[C@@H](O)CCCC(=O)O", "note": "[LXA4, Lipoxin A4]", "values": [{"measurement": "Kd", "setting": "ALX/FPR2 receptors (ALX) [1]", "value": "~1", "unit": "nM"}]}, {"molecule": "15-epimer lipoxin A4 [15-epi-LXA4]", "values": [{"measurement": "Kd", "setting": "ALX/FPR2 receptors (ALX) [1]", "value": "~1", "unit": "nM"}, {"measurement": "Inhibition of IL-8 production by A549^hALX cells conditioned with BALF", "setting": "ALX/FPR2 receptors (ALX) [2]; exogenous 15-epi-LXA4 100 nM, cells exposed to BALF", "value": "inhibited A549^hALX cell IL-8 production"}, {"measurement": "Inhibition of IL-8 production by A549^hALX cells conditioned with BALF from LXA4^lowSAA^high subjects", "setting": "ALX/FPR2 receptors (ALX) [2]; exogenous 15-epi-LXA4 100 nM, compared with LXA4^highSAA^low BALF", "value": "maximal inhibition of IL-8 production"}]}, {"molecule": "C[C@]12C=CC(=O)C=C1CC[C@H]1[C@@H]3C[C@@H](O)[C@](O)(C(=O)CO)[C@@]3(C)C[C@H](O)[C@@]12F", "note": "[triamcinolone]", "values": [{"measurement": "Change in BALF levels of LXA4, 15-epi LXA4 and SAA", "setting": "[3]", "value": "did not result in discernible changes; also recorded: not significantly altered"}]}, {"molecule": "B1", "values": [{"measurement": "IL-8 production by A549^hALX cells", "setting": "ALX/FPR2 receptors (ALX) [2]; recombinant human SAA 0-10 ng/ml, 24 h, vs saline control", "value": "concentration-dependent (0-10 ng/ml) increase in IL-8 production"}]}]}
